The text below walks through data of patent US5215744A, “Methods for the treatment of tumors” (Boehringer Ingelheim GmbH, priority 1987, dated 1993).

The subject of data set [1] is nucleoside transport through the cell membrane. To be noted: cited from earlier work.
For data set [2], the system named is RSa cells. As to the kind of experiment: DNA synthetic activity test ([^3 H]dTHD uptake into acid insoluble materials). Type of data set: cell-based, human. The following applies: for activity at 0.1 µM: Homo sapiens, 24 h, RSa cells, read-out: DNA synthesis (% of control). An excerpt:
Four established cell lines were used. These were MM-1CB, derived from tissues of malignant melanoma (level IV, pT4 N0 M0) in a person (Jpn. J. Dermatol. 96:947 (1986)); KT, derived from metastatic brain tumor in a person (J. Rad. Res. 26:59 (1985) and The 44th Meeting of Japanese Cancer Association, 718 (1985)); PLC/PRF/5, derived from human hepatoma (Brit. J. Cancer 34:509-515 (1976)) and a transformed cell line RSa (Virology 135:20-29 (1984), and J. Natl. Cancer Inst. 56:919-926 (1976)). [^3 H]dTHD uptake into acid insoluble materials were estimated in KT and RSa cells treated with the various agents, as described in J. Gen. Virol. […] 67:651-661 (1986).

The conditions of data set [3]: several hours after administration; cited from earlier work.
Data set [4] concerns DNA. The following applies: dipyridamole alone; cited from earlier work.
For data set [5], the system named is MM-1CB cells. As to the kind of experiment: Tumor growth in nude mice, treatment from 3 days after MM-1CB implantation. Type of data set: in vivo, human tumor cells in male athymic nude mice (BALB/cA JcL-nu). The following applies: combination of dipyridamole and interferon, 3 days after injection, vs each agent alone (FIG. 9).
Method: Male athymic nude mice (BALB/cA JcL-nu) used were 4 week old and weighed 14 to 18 g at the beginning of the experiment. All mice were given a basal diet (FR-II, Funabashi Nojo Co., Ltd., Funabashi) ad libitum.
Control animals were treated with phosphate buffered saline.
On day 62 post tumor implantation the size of each tumor was measured by caliper (two dimensions) and the measurements were converted to an approximation of tumor weight employing the formula: (a×b^2)/2, where a and b are the length and width of tumor, respectively.
Data set [6] concerns MM-1CB, KT and PLC/PRF/5 cells. Kind of data set: Anticellular action of HuIFN combined with dipyridamole (FIGS. 3-5). It counts as cell-based, human. To be noted: FIGS. 3B, 4B and 5B. Here is the method:
Changes of medium with and without agents were carried out every other day. The viable cells were determined by trypan-blue exclusion test and counted with a hemocytometer. The survival percentage ratio was expressed as (counts of viable cells in test dishes per counts of viable cells in control dishes) x 100%, as described elsewhere in, e.g., Mutation Research 106:357-376 (1982) and […]. 67:651-661 (1986).

The subject of data set [7] is explanted mouse peritoneal leukocytes and other cells. The following applies: in vitro; cited from earlier work.
The subject of data set [8] is MM-1CB cells. Kind of data set: Growth rate of established tumors in nude mice. Type of data set: in vivo, human tumor cells in nude mice. The procedure: Growth rate of tumors after the apparent tumor appeared and then were treated with agents.
the two agents combination

Data set [9] relates to antiviral activity in culture medium. As to the kind of experiment: Antiviral activity (IFN production) in culture medium of treated cells. Type of data set: cell-based. The following applies: 0.1 μM dipyridamole-treated cells. An excerpt:
Virol. 67:651-611 (1986).

Entries after “also recorded” stand apart in the source; their conditions may differ. Read-outs that look alike come from different tables or passages of the source.

Take `OCCN(CCO)c1nc(N2CCCCC2)c2nc(N(CCO)CCO)nc(N3CCCCC3)c2n1` [dipyridamole, 2,6-bis(diethanolamine)-4,8-dipiperidino-pyrimido[5,4-d]pyrimidin]: the nucleoside transport entry in [1] is “can inhibit nucleoside transport through the cell membrane”. Further, in data set [2] (0.1 μM dipyridamole or mopidamole, alone vs combined with HuIFN-α), the “DNA synthesis inhibition, comparison in words” value was “inhibited less than with combined treatment with HuIFN-α; also recorded: significantly more effective than mopidamole/HuIFN-α”. The activity at 0.1 µM in [2] (agent 0.1 μM combined with HuIFN-α 1 unit/ml) stood at 61%; in data set [2] (agent 0.1 μM, HuIFN-α 0 unit/ml) it was 92%. Moreover, in data set [3], the concentration in blood entry is reported as “a few micromoles”. Moreover, the DNA damage result in data set [4] is given as “does not damage DNA”. Further, in [5], the “inhibition of tumor growth” value was “more noticeably inhibited”. Also, in [6], the “most effective concentration for the synergistic enhancement of HuIFN action” value is “less than 0.1 μM”. In [7], the interferon production result is “induced interferon production in vitro in explanted mouse peritoneal leukocytes and other cells”. In data set [8] (two agents given after tumor reached more than about 1 cm in diameter (FIG. 10)), the “depression of tumor growth, combination” value was “not drastically effective in depressing tumor growth”. Also, the “effect of dipyridamole treatment prior to interferon” value in data set [8] (vs simultaneous administration (FIG. 10)) is recorded as “more effective than a simultaneous administration of the two agents”. For the same molecule, the “levels of antiviral activity in culture medium” value in data set [9] is “no detectable levels of antiviral activity”.
